Numbered stars: 1 amine (or outer) side, 2 acyl side, 3 side chain; on linkers, the order of the positions; unused ones are H or OH. Bridge positions count the residues as written; N and C are the ends. Square brackets hold non-standard residues; d marks the D form. Peptide text beside a SMILES is read from it. * marks the point of attachment. dProlinol(O-CH2CO) = O=C(COC[C@H]1CCCN1[*:1])[*:2]; N(2-Aminoethyl)Gly = O=C(CN(CCN[*:3])[*:1])[*:2]; Nle = CCCC[C@H](N)C(=O)O; Ms = CS(=O)(=O)*

Series [1] can be described thus: Stability of MTI-101 in plasma (rat). It counts as in vitro ADME.
The nature of series [2]: Stability of MTI-101 in plasma (dog). Format: in vitro ADME.
The nature of series [3]: Stability of MTI-101 in plasma (mouse). Format: in vitro ADME. The note with it: room temperature.
A further series deals with RAW 264.7 cells. The experiment in a line: Annexin V flow cytometry cell death assay in RAW 264.7 cells. It counts as cell-based, murine. As for the experimental part:
FIGS. 5A-5D show the effect of a cyclic HYD1 peptide (MTI-101) on RAW 264.7 cells (FIGS. 5A and 5B) and on RAW 264.7 cell-differentiated osteoclasts (FIGS. 5C and 5D). RAW 264.7 cells were treated with 6.25 to 50 μM MTI-101 and at the end of 24 hrs the cells were scrapped and spun down. After a single wash the cells were stained with Annexin V-FITC dye. The resulting Annexin V positivity was determined using Calibur Flow cytometry. RAW 264.7 cells were treated with 6.25 to 50 μM and incubated for 72 hrs. At the end of the incubation 2 mg/ml of 3-(4,5-dimethythiazol-2-yl)-2,5-diphenyl tetrazolium bromide (MTT). After 4 hours incubation, the resulting formazan product was solubilized by addition of DMSO and the resulting color was measured by a plate reader. […] For quantification, the cells in each treated well were manually counted using a light microscope (FIG. 5C). […]
FIGS. 6A-6C show the effect of cyclic peptide (MTI-101) on RAW 264.7 cells and on RAW 264.7 cell-differentiated osteoclasts. […] The resulting Annexin V positivity was determined using Calibur Flow cytometry. […] After 4 hours incubation the resulting formazan product was solubilized by addition of DMSO and the resulting color was measured by a plate reader. […] For quantification, the cells in each treated well were manually counted using a light microscope. […]
For orientation: Flow cytometry measures light scatter and fluorescence of single cells or particles in a stream.

Another series deals with tumor bearing tibias. The experiment in a line: Bone density (BV/TV) of tumor bearing tibias by CT scanning in myeloma model. Format: in vivo. The settings on record: compared to vehicle control (VC) treated tumor bearing mice. As for the experimental part:
FIG. 43. MTI-101 treated mice show increased trabecular bone density compared to tumor-bearing vehicle control-treated mice (VC). The same 10 tibia bones imaged by Faxitron in FIG. 43 were imaged with a Micro PET/SPECT/CT (Siemens Inveon). After imaging, the bones were reconstructed using COBRA (Constraint Based Reconstruction and Analysis) and analyzed with the Siemens Inveon workstation. 30 separate longitudinal images for each tibia were measured for both bone volume and total volume with the indicated parameters (2 mm below growth plate to 2 mm above junction with fibula). All 30 images were combined and the tibia were analyzed by bone volume/total volume (BV/TV). Images of the control group were compared to both MTI-101 and bortezomib treated mice. […] The same bones that were assayed for tumor volume in FIG. 43 were used to determine bone density by CT scanning.

The conditions of series [4]: reported; independent of the direct effect on the myeloma cell; cited from earlier work.
Setting [5] is: 4 degrees Celsius, read-out: Stability - 24 Hour 4 Degrees Celsius.
Where [6] appears, read: room temperature, read-out: Stability - 24 Hour Room Temperature.

On to `CCCC[C@@H]1NC(=O)CN(S(C)(=O)=O)CCNC(=O)[C@H](CCCCN)NC(=O)[C@H](CC(C)C)NC(=O)[C@H](CCCCN)NC(=O)[C@H](CC(C)C)NC(=O)[C@H](CCCCN)NC(=O)COC[C@H]2CCCN2C(=O)[C@H](Cc2c[nH]c3ccccc23)NC(=O)[C@H](C)NC(=O)[C@H](C(C)C)NC(=O)[C@H](C(C)C)NC1=O` [MTI-101] (Ms-[N(2-Aminoethyl)Gly][Nle]VVAW[dProlinol(O-CH2CO)]KLKLK; lactam 1-C), for which the remaining at 24 h worked out at 94% in series [1] (setting [5]); 90% in series [1] (setting [6]); 83% in series [2] (setting [5]); 67% in series [2] (setting [6]); 85% in series [3]. In addition, the “cell death (Annexin V positivity)” value is given as “nor did it induce cell death” in the series on RAW 264.7 cells (multiple dosing 6.25 to 50 μM on days 1, 3 and 5, read day 7); “nor did it induce cell death” in the series on RAW 264.7 cells (single treatment 6.25 to 50 μM, 24 hrs).
Consider `CC(C)C[C@H](NC(=O)[C@H](Cc1ccccc1)NC(=O)c1cnccn1)B(O)O` [bortezomib], for which the “bone density (bone volume/total volume, BV/TV)” value in the series with tumor bearing tibias is “increased bone density”. Besides, the bone anabolic effects result in series [4] is given as “induce bone anabolic effects”.
Regarding `CC(C)C[C@H](NC(=O)[C@H](CCc1ccccc1)NC(=O)CN1CCOCC1)C(=O)N[C@@H](Cc1ccccc1)C(=O)N[C@@H](CC(C)C)C(=O)[C@@]1(C)CO1` [carfilzomib], the bone anabolic effects result in series [4] is recorded as “induce bone anabolic effects”.

The values above are taken from patent publication US20140322227A1, “PEPTIDES FOR TREATMENT OF BONE DEFICIENCY AND AUTOIMMUNE DISORDERS” (H. LEE MOFFITT CANCER CENTER & RESEARCH INSTITUTE, INC., priority 2013, published 2014).
